Assay [1] concerns angiotensin-converting enzyme (ACE). The note with it: cited from earlier work; for IC50: read-out: IC50 (ACE inhibition). The text has this: The immobilization of ACE using various immobilization media is a promising affinity purification method to obtain shorter peptides from diverse sources. […] Feng et al. used a novel affinity medium Fe3O4@ZIF-90 and combined this method with reversed-phase high-performance liquid chromatography (RP-HPLC) and MALDI-TOF mass spectrometry to purify ... || Collectively, low-molecular-weight fractions isolated from SCGHs using the ultrafiltration method allowed us to obtain small peptides with potent ACE inhibitory activity. ACE inhibitory molecules are typically characterized by their small and short-chain peptide structures. In this study, a combination of ultrafiltration separation and SCGH effectively eliminated substances above 3 kDa. We further isolated the active components by utilizing an ACE enzyme affinity column, which facilitated the removal of other nonspecifically bound substances and yielded the target peptides. […] For instance, the experimentally purified short peptide DDQYHIF features Phe at the C-terminus, while HDWWKER has basic amino acids Arg and His at the C- and N-termini, respectively. Sun et al. reported that peptides with Arg at the C-termi ...

Assay [2] deals with T1, angiotensin-I-converting enzyme (ACE) (UniProt P12822 34-1260).
T1 sequence (looked up): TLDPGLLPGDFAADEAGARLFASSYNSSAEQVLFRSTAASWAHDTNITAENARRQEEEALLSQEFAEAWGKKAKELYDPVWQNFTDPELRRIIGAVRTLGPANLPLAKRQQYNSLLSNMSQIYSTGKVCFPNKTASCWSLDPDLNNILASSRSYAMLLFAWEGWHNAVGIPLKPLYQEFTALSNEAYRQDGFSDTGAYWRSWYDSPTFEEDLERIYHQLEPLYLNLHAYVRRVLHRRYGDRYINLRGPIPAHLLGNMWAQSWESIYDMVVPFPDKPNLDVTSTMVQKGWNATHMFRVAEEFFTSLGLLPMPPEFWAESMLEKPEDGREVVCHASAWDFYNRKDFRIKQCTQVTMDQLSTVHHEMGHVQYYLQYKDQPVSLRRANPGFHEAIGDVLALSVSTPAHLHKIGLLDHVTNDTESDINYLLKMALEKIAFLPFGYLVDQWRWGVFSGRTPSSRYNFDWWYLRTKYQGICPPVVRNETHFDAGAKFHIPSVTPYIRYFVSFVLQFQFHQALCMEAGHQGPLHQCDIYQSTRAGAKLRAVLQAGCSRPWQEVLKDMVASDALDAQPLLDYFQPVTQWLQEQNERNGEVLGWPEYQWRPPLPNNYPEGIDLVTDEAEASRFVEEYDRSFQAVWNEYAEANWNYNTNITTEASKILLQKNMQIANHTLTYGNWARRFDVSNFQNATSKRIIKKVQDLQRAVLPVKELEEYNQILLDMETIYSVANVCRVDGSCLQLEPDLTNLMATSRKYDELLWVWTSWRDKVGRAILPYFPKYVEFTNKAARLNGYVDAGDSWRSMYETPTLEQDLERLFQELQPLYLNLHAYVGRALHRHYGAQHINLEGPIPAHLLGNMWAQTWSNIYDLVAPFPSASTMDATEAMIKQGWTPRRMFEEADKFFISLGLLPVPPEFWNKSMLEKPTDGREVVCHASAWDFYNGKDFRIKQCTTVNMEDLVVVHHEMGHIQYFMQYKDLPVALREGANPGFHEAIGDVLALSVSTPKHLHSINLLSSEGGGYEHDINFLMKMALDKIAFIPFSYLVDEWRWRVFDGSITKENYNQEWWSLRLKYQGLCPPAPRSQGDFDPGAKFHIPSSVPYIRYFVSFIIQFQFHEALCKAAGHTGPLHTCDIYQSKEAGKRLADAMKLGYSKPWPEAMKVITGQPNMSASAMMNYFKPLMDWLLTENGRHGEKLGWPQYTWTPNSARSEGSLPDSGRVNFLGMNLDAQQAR
Briefly: cell-based or functional assay.

The mark [3] stands for this setting: from Ulva intestinalis, ref [32].

Where two headings read alike, the source gives them in different places.

For KNFL, the “ACE inhibition (in words)” value in assay [1] (from Undaria pinnatifida, ref [8]) is on record as “ACE inhibitory peptide”.

For the molecule LLYQEPVLGPVR, in assay [1] (from casein hydrolysate, ref [7]), the “ACE inhibition (in words)” value is “potent ACE inhibitory peptide”.

The term IC50 denotes the concentration needed to halve the response being measured. Regarding “TLRFALHGME [novel peptide from Takifugu flavidus hydrolysate]”, the concentration for half-maximal inhibition (IC50) in assay [1] (from Takifugu flavidus hydrolysate, ref [17]) was 93.5 µM.

Turning to EIYR, the IC50 in assay [1] (from sea cucumber gonads, ref Zhong et al. (2018)) is 348 µM.

MELVLR: the IC50 in assay [1] (setting [3]) was 237 µM.

FGMPLDR: the IC50 in assay [1] (setting [3]) was 219 µM.

As to GMKCA, in assay [1] (ref [9]), the “ACE inhibition (in words)” value is “ACE inhibitory peptide” and the IC50 is 45.7 µM.

Consider DDQYHIF, for which the “IC50 of ACE inhibition (HHL substrate, HPLC)” value (from here on “IC50 of ACE inhibition”) in assay [2] worked out at 334 µM.

For HDWWKER, the “IC50 of ACE inhibition” value in assay [2] came to 584 µM.

Consider THDWWKER, for which the “IC50 of ACE inhibition” value in assay [2] was 1290 µM.

The values above are taken from publication PMC10890666, “Targeted Affinity Purification and Mechanism of Action of Angiotensin-Converting Enzyme (ACE) Inhibitory Peptides from Sea Cucumber Gonads” (Marine Drugs, 2024).
